# Assay results from US7754751B2, “Preferential inhibition of release of pro-inflammatory cytokines” (Yung Shin Pharmaceutical Ind. Co., Ltd., priority 2004, dated 2010).
# How the values were obtained:
# [1] = system: interleukin 8; assay: LPS-induced interleukin 8 release in human PBMC; format: cell-based; details: 10 μM compound with LPS 25 μg/ml, 24 h
# Procedure: (§1) Approximately 450 ml of blood was obtained from healthy human volunteers and diluted with RPMI 1640 culture medium. A Ficoll gradient (MSL; Eurobio, les Ulis, France) was used to isolate human peripheral blood mononuclear leukocytes (PBMC). The volume ratio of blood, RPMI 1640 culture medium, and MSL was 2:4:1. PBMC were obtained by centrifuging the diluted blood at 500 g at 15° C. for 20 min and washed once with RPMI 1640. The cell pellets were resuspended at a final concentration of 6×10^6 cells/ml of the same medium supplemented with 5% heat-inactivated normal human serum (a pool of sera from healthy volunteers) and antibiotics (penicillin 100 UI/ml and streptomycin 100 μg/ml). Aliquots of 500 μl of the cell suspension were dispensed into each well of a 24-well plate and incubated at 37° C. in a 5% CO2-95% air incubator in a humidified atmosphere. To wells were added lipopolysaccharide (LPS, 25 μg/ml) from smooth E. Coli 0111:B4 alone or LPS and Compound 1 (10 μM) together. After 24 h, the supernatants were collected, centrifuged at 400 g for 10 min at 15° C. and stored at −20° C. Cytokines were assayed using commercial kits manufactured by R & D Systems (Abingdon, UK). The concentrations of the cytokines were determined using an internal standard according to the manufacturer's instructions.
# [2] = system: interleukin 1β; assay: LPS-induced interleukin 1β release in human PBMC; format: cell-based; details: 10 μM compound with LPS 25 μg/ml, 24 h
# Procedure: as §1
# [3] = system: interleukin-10; assay: LPS-induced interleukin-10 release in human PBMC; format: cell-based; details: 10 μM compound with LPS 25 μg/ml, 24 h
# Procedure: as §1
# [4] = system: interleukin-2; assay: LPS-induced interleukin-2 release in human PBMC; format: cell-based; details: 10 μM compound with LPS 25 μg/ml, 24 h
# Procedure: as §1
# [5] = system: NF-κB; assay: NF-κB DNA binding activity in tissue nuclear extracts of LPS-treated mice (EMSA, ELISA-based Trans-AM p65 kit); format: in vivo; details: ICR mice, LPS 60 mg/kg i.p., compound 10 mg/kg orally in 0.5% carboxymethyl cellulose; lung, spleen, kidney extracts
# Procedure: Mice (25-30 g, ICR strain) were injected intraperitoneally with LPS (60 mg/kg). Most of them were orally treated with Compound 1 (10 mg/kg) in 0.5% carboxymethyl cellulose, and the rest (control mice) were orally treated with vehicle. The control mice died within 27 h after the LPS administration. The mice were euthanatized with intraperitoneal administration of pentobarbital at various time intervals after the LPS administration. Nuclear extracts of lung, spleen, and kidney tissues were prepared by a standard method. NF-κB DNA binding activity was assessed by an electrophoretic mobility shift assay according to a procedure described in Pan et al., J Biomed Sci. 2002, 9: 622-630. […] The sample was then charged to native 5% polyacrylamide gels and analyzed by autoradiography. […] NF-κB DNA binding activity was also assessed with ELISA-based Trans-AM NF-κB p65 transcription factor assay kits (Active Motif Europe, […], Belgium) according to the manufacturer's instructions. […] Specificity of NF-κB activation was determined by competition experiments using NF-κB wild-type and mutant consensus oligonucleotides that were provided with the kit.
# [6] = system: interferon-γ; assay: LPS-induced interferon-γ release in human PBMC; format: cell-based; details: 10 μM compound with LPS 25 μg/ml, 24 h
# Procedure: as §1
# [7] = system: TNF-α; assay: LPS-induced TNF-α release in human PBMC; format: cell-based; details: 10 μM compound with LPS 25 μg/ml, 24 h
# Procedure: as §1
# [8] = system: interleukin-4; assay: LPS-induced interleukin-4 release in human PBMC; format: cell-based; details: 10 μM compound with LPS 25 μg/ml, 24 h
# Procedure: as §1
structure (smiles),measurement,setting,value
"OCc1ccc(-c2nn(Cc3ccccc3)c3ccccc23)o1 [Compound 1, 3-(5′-hydroxymethyl-2′-furyl)-1-benzyl-indazol]",inhibition at 10 µM,[1],> 80%
same,inhibition at 10 µM,[2],> 80%
same,inhibition at 10 µM,[3],< 10%
same,inhibition at 10 µM,[4],> 30%
same,NF-κB/DNA complex level induced by LPS,[5],inhibited the increase of the NF-κB/DNA complex level induced by LPS
same,inhibition at 10 µM,[6],> 30%
same,inhibition at 10 µM,[7],> 80%
same,inhibition at 10 µM,[8],< 10%
